Assay results as given in PMC12280919, “Arylsulfamates inhibit colonic Bacteroidota growth through a sulfatase-independent mechanism” (Proceedings of the National Academy of Sciences of the …, 2025).
Structures can show the parent of a compound that is named as a salt. Blank lines part the entries; values can stand above or below the molecule they belong to.

Key:
PaAstA [1] = biological target: T1, PaAstA (Pseudomonas aeruginosa, UniProt P51691); experiment: 4-nitrophenolate release, A400; type: biochemical; details: 1 mM substrate, pH 7.0, 5 mM CaCl2, 20-25 °C
T1 construct: gene atsA; S1_4 sulfatase
T1 sequence (P51691 2-536): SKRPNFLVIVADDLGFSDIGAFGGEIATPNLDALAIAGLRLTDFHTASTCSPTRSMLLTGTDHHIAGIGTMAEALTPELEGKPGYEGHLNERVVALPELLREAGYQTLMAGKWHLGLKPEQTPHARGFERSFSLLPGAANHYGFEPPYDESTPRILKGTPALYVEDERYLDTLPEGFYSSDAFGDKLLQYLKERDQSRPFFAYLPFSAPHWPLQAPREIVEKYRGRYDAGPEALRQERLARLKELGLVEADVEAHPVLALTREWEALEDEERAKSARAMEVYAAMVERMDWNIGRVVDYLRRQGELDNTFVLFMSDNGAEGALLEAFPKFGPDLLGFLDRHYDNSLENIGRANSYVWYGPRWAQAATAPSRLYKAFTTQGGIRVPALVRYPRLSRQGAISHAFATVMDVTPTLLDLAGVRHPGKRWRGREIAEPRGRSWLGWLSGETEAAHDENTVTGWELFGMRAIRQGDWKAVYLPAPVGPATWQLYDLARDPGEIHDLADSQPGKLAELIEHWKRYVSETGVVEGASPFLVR

BT4322 = biological target: T2, BT4322 (Bacteroides thetaiotaomicron, UniProt Q89ZQ4); experiment: thermal shift assay (SYPRO Orange DSF); type: binding; details: pH 7.0, 100 mM BTP, 150 mM NaCl, 5% DMSO
T2 construct: gene BT_4322; recombinant in E. coli
T2 sequence (Q89ZQ4 1-308): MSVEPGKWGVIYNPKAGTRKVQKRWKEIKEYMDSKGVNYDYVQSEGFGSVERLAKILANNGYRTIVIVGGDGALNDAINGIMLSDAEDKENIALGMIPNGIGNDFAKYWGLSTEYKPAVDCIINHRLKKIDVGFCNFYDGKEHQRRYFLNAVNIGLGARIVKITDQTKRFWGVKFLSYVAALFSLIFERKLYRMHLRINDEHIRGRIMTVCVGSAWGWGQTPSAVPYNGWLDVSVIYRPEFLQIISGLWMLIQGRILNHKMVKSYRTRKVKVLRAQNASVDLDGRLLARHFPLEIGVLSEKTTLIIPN

PaAstA [2] = biological target: T1, PaAstA; experiment: 4-nitrophenyl sulfate hydrolysis, A400; also preincubation and jump dilution; type: biochemical; details: 1 mM compound, 1 mM 4-nitrophenyl sulfate, pH 7.0, 5 mM CaCl2, 20-25 °C; irreversible, covalent
BT1636^3S-Gal = biological target: T3, BT1636^3S-Gal (Bacteroides thetaiotaomicron, UniProt Q8A789, S77C); experiment: microfluidic mobility shift desulfation assay after overnight preincubation and dilution; type: biochemical; details: 1 mM compound, only after preincubation; BODIPY-labelled sulfated substrate, 5 mM CaCl2, 28 °C; formylglycine form
T3 construct: gene BT_1636; recombinant in E. coli TUNER, cobalt IMAC
T3 sequence (Q8A789 23-509 S77C): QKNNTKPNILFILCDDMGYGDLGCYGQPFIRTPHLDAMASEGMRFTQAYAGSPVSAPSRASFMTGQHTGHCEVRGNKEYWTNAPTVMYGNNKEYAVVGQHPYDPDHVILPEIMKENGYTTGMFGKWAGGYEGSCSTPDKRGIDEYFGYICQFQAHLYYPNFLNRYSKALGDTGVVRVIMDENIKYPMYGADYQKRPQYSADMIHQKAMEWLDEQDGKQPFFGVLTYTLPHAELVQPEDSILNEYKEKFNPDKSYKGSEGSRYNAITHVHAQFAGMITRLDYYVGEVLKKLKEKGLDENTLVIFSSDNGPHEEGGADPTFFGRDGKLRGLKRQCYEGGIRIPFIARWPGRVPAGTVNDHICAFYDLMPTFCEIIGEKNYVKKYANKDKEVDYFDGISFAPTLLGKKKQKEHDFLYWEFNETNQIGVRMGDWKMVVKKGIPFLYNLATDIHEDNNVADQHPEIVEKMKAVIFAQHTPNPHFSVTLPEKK

Structure (SMILES): O=[N+]([O-])c1ccc(OS(=O)(=O)O)cc1 [4-nitrophenyl sulfate]
4-nitrophenolate release, A400 (PaAstA [1]): rapidly hydrolyzed by the family S1 steroid sulfatase PaAsta

dTm (BT4322; stabilizing): The substrate ATP also stabilized BT4322
Structure (SMILES): Nc1ncnc2c1ncn2[C@@H]1O[C@H](COP(=O)(O)OP(=O)(O)OP(=O)(O)O)[C@@H](O)[C@H]1O [ATP]

Structure (SMILES): NS(=O)(=O)Oc1ccc(-c2ccccc2)cc1 [compound 2, 4-phenylphenyl sulfamate]
% inhibition at 1 mM (PaAstA [2]): all arylsulfamates were broadly equivalent in their ability to completely inhibit both enzymes

Structure (SMILES): COc1cc2ccccc2cc1OS(N)(=O)=O [compound 17, arylsulfamate 17]
% inhibition at 1 mM (PaAstA [2]): all arylsulfamates were broadly equivalent in their ability to completely inhibit both enzymes

Structure (SMILES): O=S(=O)(F)c1ccccc1 [compound 23, aryl sulfonylfluoride 23]
% inhibition at 1 mM (BT1636^3S-Gal): > 50%

Structure (SMILES): O=c1c2ccccc2[nH]c(=S)n1CCN1CCC(=C(c2ccc(F)cc2)c2ccc(F)cc2)CC1 [diacylglycerol kinase inhibitor II]
dTm (BT4322; stabilizing): DAGK-II caused a concentration-dependent stabilization

Structure (SMILES): Cc1nc2sccn2c(=O)c1CCN1CCC(=C(c2ccccc2)c2ccc(F)cc2)CC1 [diacylglycerol kinase inhibitor I]
dTm (BT4322; destabilizing): The DAGK-I inhibitor also caused concentration-dependent destabilization
